Measurements from the NIST ThermoML archive (doi:10.1021/je300152t).
Numbers after ± are expanded uncertainties.

Key:
[1] = Crystal; DTA
[2] = Molar enthalpy of transition or fusion; conditions: Crystal; DSC

Structure (SMILES) | Normal melting temperature [1] [°C] | Molar enthalpy of transition or fusion [2] [kcal/mol]
O=C(Nc1ccccc1)c1ccccc1 [N-phenylbenzamide] | 162 ± 1 | 7.46 ± 0.359
CC(=O)Nc1ccc(C)cc1 [1-acetamido-4-methylbenzene] | 148.2 ± 0.7 | 7.03 ± 0.167
CC(=O)Nc1ccccc1 [N-phenylethanamide] | 113.8 ± 0.4 | 5.28 ± 0.12

Now from value to molecule:

Normal melting temperature [1] [°C] | Molar enthalpy of transition or fusion [2] [kcal/mol] | Structure (SMILES)
134 ± 1 | 7.65 ± 0.167 | CCOc1ccc(NC(C)=O)cc1 [N-(4-ethoxyphenyl)ethanamide]
95 ± 0.9 | 6.91 ± 0.239 | CCOc1cccc(NC(C)=O)c1 [N-(3-ethoxyphenyl)acetamide]
125.1 ± 2.4 | 6.07 ± 0.191 | COc1ccc(NC(C)=O)cc1 [N-(4-methoxyphenyl)ethanamide]
